# Experimental data published in paper doi:10.1101/2024.08.19.608619, “Discovery of potent SARS-CoV-2 nsp3 macrodomain inhibitors uncovers lack of translation to cellular antiviral response” (bioRxiv, 2024).
# Read-outs that look alike come from different tables or passages of the source.
# Key:
# Assay in all cases: biochemical
# Parameters in all cases: In vitro kinase panel profiling, per cent remaining kinase activity at 10 uM
# [1] = target: T1, Aurora-A(h) (Homo sapiens, UniProt O14965); conditions: atp_concentration=15, read-out: % of control remaining
# T1 construct: gene AURKA
# T1 sequence (O14965 1-403): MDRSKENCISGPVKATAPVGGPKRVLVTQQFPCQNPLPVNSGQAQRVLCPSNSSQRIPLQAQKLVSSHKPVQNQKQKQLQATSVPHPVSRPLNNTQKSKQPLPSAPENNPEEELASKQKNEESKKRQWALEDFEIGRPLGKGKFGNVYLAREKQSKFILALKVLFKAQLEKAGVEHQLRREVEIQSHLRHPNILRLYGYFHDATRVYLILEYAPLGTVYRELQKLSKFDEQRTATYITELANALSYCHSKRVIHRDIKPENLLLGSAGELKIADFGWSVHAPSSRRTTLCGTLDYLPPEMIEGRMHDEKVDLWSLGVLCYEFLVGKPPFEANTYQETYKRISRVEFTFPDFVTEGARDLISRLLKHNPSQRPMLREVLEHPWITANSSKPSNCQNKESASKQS
# Text: (§1) We derisk potential for off-target activity by profiling the compound in a CEREP panel, a standard secondary pharmacology assessment, as well as a kinase panel to derisk a potential hinge-binding motif in our leads, and a PARP panel to derisk activity against human […]. Reassuringly, the compounds are selective, with the only off-targets being moderate human CHRM2 and KOR receptors activity associated with ASAP-0011198.
# [2] = target: T2, CK1γ1(h) (Homo sapiens, UniProt Q9HCP0); conditions: atp_concentration=15, read-out: % of control remaining
# T2 construct: gene CSNK1G1
# T2 sequence (Q9HCP0 whole entry): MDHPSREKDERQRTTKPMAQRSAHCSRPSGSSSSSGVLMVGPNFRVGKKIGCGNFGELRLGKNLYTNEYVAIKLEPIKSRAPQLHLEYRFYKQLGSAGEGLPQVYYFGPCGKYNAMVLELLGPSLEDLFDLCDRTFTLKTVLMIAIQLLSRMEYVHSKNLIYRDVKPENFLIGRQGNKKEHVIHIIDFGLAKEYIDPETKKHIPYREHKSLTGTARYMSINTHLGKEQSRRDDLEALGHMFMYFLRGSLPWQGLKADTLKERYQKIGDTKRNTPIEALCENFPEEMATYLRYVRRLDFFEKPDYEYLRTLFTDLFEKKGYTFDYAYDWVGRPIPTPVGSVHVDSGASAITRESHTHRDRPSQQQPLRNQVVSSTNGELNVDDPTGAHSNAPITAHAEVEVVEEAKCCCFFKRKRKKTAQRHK
# Text: as §1
# [3] = target: T3, CaMKI(h) (Homo sapiens, UniProt Q14012); conditions: atp_concentration=200, read-out: % of control remaining
# T3 construct: gene CAMK1
# T3 sequence (Q14012 whole entry): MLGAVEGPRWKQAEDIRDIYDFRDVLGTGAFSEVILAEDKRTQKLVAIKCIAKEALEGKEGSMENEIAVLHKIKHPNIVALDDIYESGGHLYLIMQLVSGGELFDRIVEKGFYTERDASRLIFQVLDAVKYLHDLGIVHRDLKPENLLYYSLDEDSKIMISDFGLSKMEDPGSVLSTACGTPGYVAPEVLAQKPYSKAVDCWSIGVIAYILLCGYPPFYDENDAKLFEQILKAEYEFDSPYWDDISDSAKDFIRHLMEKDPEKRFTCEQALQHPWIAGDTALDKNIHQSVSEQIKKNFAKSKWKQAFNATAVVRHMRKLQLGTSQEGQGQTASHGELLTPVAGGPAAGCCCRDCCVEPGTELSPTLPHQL
# Text: as §1
# [4] = target: Fyn(h) (Homo sapiens, UniProt P06241); conditions: atp_concentration=70, read-out: % of control remaining
# Chain of Fyn(h) (P06241 whole entry): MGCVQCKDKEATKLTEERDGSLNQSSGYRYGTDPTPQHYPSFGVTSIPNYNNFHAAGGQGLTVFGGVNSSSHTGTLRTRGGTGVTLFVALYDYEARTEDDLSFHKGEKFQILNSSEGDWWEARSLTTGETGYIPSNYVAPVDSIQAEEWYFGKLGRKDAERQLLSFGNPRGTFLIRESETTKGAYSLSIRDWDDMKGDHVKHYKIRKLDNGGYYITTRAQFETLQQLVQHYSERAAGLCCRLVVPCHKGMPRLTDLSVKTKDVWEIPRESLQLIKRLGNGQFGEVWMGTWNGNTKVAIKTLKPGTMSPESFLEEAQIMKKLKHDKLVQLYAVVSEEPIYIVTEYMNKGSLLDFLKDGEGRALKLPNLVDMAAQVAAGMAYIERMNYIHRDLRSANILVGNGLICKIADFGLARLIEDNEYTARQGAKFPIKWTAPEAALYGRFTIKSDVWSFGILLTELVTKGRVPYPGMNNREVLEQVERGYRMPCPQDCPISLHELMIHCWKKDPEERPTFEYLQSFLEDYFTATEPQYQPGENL
# Text: as §1
# [5] = target: T4, IRAK4(h) (Homo sapiens, UniProt Q9NWZ3); conditions: atp_concentration=200, read-out: % of control remaining
# T4 sequence (Q9NWZ3 1-460): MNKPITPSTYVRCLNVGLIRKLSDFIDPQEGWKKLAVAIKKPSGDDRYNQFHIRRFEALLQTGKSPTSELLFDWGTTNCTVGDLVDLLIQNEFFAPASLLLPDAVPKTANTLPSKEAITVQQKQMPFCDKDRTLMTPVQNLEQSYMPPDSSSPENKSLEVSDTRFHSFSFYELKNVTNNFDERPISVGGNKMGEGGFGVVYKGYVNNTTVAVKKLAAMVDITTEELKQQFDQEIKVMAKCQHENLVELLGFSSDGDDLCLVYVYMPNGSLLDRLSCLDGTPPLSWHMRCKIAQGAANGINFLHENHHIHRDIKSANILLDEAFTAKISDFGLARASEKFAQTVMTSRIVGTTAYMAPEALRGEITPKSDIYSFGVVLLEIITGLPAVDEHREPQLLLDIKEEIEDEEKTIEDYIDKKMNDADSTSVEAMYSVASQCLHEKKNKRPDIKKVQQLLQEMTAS
# Text: as §1
# [6] = target: T5, LOK(h) (Homo sapiens, UniProt O94804); conditions: atp_concentration=120, read-out: % of control remaining
# T5 construct: gene STK10
# T5 sequence (O94804 whole entry): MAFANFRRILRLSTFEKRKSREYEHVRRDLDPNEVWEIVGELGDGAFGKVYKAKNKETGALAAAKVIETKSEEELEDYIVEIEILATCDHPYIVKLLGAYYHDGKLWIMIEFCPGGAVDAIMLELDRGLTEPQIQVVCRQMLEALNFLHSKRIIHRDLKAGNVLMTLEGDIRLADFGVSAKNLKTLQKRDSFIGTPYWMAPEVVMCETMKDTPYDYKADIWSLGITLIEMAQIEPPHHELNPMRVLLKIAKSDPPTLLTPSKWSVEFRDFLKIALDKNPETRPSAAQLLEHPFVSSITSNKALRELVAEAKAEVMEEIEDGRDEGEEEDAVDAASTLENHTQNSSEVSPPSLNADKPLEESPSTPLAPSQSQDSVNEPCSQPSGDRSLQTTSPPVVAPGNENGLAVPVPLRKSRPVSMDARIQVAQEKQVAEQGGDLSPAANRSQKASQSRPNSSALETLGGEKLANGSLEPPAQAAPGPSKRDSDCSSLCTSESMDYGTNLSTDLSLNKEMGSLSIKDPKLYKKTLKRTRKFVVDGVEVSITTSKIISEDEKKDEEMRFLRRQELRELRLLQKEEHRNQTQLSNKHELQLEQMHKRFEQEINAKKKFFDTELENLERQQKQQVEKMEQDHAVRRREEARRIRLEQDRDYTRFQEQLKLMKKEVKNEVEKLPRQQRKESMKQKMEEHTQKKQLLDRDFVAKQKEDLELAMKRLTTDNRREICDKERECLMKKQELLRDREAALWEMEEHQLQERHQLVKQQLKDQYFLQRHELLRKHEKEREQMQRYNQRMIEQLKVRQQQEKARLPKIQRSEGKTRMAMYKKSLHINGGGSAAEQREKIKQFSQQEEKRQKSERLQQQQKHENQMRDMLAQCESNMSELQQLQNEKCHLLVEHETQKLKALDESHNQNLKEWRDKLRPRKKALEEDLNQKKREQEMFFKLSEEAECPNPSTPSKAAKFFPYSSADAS
# Text: as §1
# [7] = target: Lyn(h) (Homo sapiens, UniProt P07948); conditions: atp_concentration=70, read-out: % of control remaining
# Chain of Lyn(h) (P07948 whole entry): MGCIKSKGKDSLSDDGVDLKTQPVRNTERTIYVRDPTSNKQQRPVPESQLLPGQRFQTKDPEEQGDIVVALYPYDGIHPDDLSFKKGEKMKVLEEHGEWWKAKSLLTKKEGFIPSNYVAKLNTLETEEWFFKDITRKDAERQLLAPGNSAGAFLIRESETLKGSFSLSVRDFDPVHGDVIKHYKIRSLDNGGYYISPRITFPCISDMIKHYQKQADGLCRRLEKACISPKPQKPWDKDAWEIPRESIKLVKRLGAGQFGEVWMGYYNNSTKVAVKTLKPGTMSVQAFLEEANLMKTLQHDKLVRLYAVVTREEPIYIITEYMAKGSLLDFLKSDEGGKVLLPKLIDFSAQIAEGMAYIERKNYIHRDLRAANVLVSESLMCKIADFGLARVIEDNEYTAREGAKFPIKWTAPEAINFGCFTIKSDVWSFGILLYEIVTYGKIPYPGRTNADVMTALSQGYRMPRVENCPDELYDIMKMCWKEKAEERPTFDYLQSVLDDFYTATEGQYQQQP
# Text: as §1
# [8] = target: T6, MST1(h) (Homo sapiens, UniProt Q13043); conditions: atp_concentration=90, read-out: % of control remaining
# T6 construct: gene STK4
# T6 sequence (Q13043 1-487): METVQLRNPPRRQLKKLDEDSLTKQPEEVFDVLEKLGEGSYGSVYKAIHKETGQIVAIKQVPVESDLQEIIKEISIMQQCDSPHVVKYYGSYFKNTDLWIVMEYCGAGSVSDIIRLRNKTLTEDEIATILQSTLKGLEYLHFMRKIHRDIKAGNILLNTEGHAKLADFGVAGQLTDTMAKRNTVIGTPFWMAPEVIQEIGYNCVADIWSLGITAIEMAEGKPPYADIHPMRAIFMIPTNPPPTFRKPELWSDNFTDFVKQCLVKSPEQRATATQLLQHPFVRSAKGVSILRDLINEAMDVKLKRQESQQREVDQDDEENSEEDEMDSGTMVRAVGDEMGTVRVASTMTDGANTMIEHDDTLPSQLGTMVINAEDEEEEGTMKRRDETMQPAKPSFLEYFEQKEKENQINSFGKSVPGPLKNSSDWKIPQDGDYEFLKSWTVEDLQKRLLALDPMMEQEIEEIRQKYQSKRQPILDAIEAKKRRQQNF
# Text: as §1
# [9] = target: T7, PDGFRβ(h) (Homo sapiens, UniProt P09619); conditions: atp_concentration=200, read-out: % of control remaining
# T7 construct: gene PDGFRB
# T7 sequence (P09619 whole entry): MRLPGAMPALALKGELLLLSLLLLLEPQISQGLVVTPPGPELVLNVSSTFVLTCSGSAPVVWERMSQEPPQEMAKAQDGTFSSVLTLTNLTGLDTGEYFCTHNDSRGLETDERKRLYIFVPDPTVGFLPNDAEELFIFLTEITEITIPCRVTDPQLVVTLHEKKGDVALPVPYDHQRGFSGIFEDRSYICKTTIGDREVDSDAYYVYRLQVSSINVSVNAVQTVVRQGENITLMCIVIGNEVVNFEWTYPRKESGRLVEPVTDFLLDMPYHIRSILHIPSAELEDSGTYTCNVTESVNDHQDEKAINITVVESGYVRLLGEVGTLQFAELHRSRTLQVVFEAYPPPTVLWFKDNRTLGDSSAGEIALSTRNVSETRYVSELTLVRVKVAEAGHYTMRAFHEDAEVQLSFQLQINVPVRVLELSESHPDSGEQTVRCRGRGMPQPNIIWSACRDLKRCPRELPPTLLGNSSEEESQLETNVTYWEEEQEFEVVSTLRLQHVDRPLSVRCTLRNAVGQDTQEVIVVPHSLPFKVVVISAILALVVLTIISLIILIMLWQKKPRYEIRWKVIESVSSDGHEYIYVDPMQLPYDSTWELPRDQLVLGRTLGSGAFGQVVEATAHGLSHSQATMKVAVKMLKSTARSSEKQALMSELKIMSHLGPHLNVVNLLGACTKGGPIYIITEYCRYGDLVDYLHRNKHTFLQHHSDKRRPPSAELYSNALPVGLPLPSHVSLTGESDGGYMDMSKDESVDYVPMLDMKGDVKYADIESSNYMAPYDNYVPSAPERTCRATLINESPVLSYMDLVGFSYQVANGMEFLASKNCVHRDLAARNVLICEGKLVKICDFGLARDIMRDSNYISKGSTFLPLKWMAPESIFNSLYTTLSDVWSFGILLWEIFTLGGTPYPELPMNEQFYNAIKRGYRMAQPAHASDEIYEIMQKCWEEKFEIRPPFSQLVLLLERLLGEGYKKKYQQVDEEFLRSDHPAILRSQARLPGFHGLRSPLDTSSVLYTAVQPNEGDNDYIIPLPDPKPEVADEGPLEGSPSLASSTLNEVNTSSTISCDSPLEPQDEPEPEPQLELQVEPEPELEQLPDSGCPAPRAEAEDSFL
# Text: as §1
# [10] = target: T8, PI3 Kinase (p110β/p85α)(h) (Homo sapiens, UniProt P42338); conditions: atp_concentration=200, read-out: % of control remaining
# T8 construct: gene PIK3CB
# Text: as §1
# [11] = target: T9, SAPK2a(h) (Homo sapiens, UniProt Q16539); conditions: atp_concentration=90, read-out: % of control remaining
# T9 construct: gene MAPK14
# T9 sequence (Q16539 whole entry): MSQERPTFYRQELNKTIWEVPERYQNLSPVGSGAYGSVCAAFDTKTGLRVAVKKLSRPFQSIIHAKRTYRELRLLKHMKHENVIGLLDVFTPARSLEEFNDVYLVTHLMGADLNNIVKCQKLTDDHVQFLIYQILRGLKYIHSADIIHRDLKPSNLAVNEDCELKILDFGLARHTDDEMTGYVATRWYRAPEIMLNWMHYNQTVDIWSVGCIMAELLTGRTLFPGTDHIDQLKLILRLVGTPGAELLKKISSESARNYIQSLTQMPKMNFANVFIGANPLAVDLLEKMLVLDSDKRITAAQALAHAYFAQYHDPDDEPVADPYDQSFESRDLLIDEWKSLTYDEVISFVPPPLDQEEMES
# Text: as §1
# [12] = target: mTOR(h) (Homo sapiens, UniProt P42345); conditions: atp_concentration=70, read-out: % of control remaining
# Text: as §1
compound,measurement,setting,value
CC(C)[C@H](Nc1ncnc2[nH]ccc12)c1ccc2c(c1)S(=O)(=O)CCC2 [ASAP-0008674],remaining activity at 10 µM,[1]; batch_name=ASAP-0008674-002,51%
same,remaining activity at 10 µM,[2]; batch_name=ASAP-0008674-002,97%
same,remaining activity at 10 µM,[3]; batch_name=ASAP-0008674-002,92%
same,remaining activity at 10 µM,[4]; batch_name=ASAP-0008674-002,96%
same,remaining activity at 10 µM,[5]; batch_name=ASAP-0008674-002,112%
same,remaining activity at 10 µM,[6]; batch_name=ASAP-0008674-002,102%
same,remaining activity at 10 µM,[7]; batch_name=ASAP-0008674-002,104%
same,remaining activity at 10 µM,[8]; batch_name=ASAP-0008674-002,126%
same,remaining activity at 10 µM,[9]; batch_name=ASAP-0008674-002,89%
same,remaining activity at 10 µM,[10]; batch_name=ASAP-0008674-002,100%
same,remaining activity at 10 µM,[11]; batch_name=ASAP-0008674-002,107%
same,remaining activity at 10 µM,[12]; batch_name=ASAP-0008674-002,99%
CC(C)[C@H](Nc1ncnc2[nH]c(-c3cnn(C)c3C#N)cc12)c1ccc2c(n1)OCCO2 [ASAP-0010715],remaining activity at 10 µM,[1]; batch_name=ASAP-0010715-002,53%
same,remaining activity at 10 µM,[2]; batch_name=ASAP-0010715-002,100%
same,remaining activity at 10 µM,[3]; batch_name=ASAP-0010715-002,104%
same,remaining activity at 10 µM,[4]; batch_name=ASAP-0010715-002,80%
same,remaining activity at 10 µM,[5]; batch_name=ASAP-0010715-002,106%
same,remaining activity at 10 µM,[6]; batch_name=ASAP-0010715-002,45%
same,remaining activity at 10 µM,[7]; batch_name=ASAP-0010715-002,79%
same,remaining activity at 10 µM,[8]; batch_name=ASAP-0010715-002,120%
same,remaining activity at 10 µM,[9]; batch_name=ASAP-0010715-002,92%
same,remaining activity at 10 µM,[10]; batch_name=ASAP-0010715-002,86%
same,remaining activity at 10 µM,[11]; batch_name=ASAP-0010715-002,99%
same,remaining activity at 10 µM,[12]; batch_name=ASAP-0010715-002,104%
CC(C)[C@@H](Nc1ncnc2[nH]c(-c3cnn(C)c3C#N)cc12)c1ccc2c(n1)OCCO2 [ASAP-0010716],remaining activity at 10 µM,[1]; batch_name=ASAP-0010716-002,58%
same,remaining activity at 10 µM,[2]; batch_name=ASAP-0010716-002,99%
same,remaining activity at 10 µM,[3]; batch_name=ASAP-0010716-002,95%
same,remaining activity at 10 µM,[4]; batch_name=ASAP-0010716-002,55%
same,remaining activity at 10 µM,[5]; batch_name=ASAP-0010716-002,99%
same,remaining activity at 10 µM,[6]; batch_name=ASAP-0010716-002,106%
same,remaining activity at 10 µM,[7]; batch_name=ASAP-0010716-002,96%
same,remaining activity at 10 µM,[8]; batch_name=ASAP-0010716-002,121%
same,remaining activity at 10 µM,[9]; batch_name=ASAP-0010716-002,93%
same,remaining activity at 10 µM,[10]; batch_name=ASAP-0010716-002,84%
same,remaining activity at 10 µM,[11]; batch_name=ASAP-0010716-002,101%
same,remaining activity at 10 µM,[12]; batch_name=ASAP-0010716-002,102%
CNCc1cc(-c2cc3c(N[C@@H](c4ccc5c(c4)S(=O)(=O)CCC5)C(C)C)ncnc3[nH]2)co1 [ASAP-0011176],remaining activity at 10 µM,[1]; batch_name=ASAP-0011176-002,73%
same,remaining activity at 10 µM,[2]; batch_name=ASAP-0011176-002,99%
same,remaining activity at 10 µM,[3]; batch_name=ASAP-0011176-002,87%
same,remaining activity at 10 µM,[4]; batch_name=ASAP-0011176-002,64%
same,remaining activity at 10 µM,[5]; batch_name=ASAP-0011176-002,100%
same,remaining activity at 10 µM,[6]; batch_name=ASAP-0011176-002,92%
same,remaining activity at 10 µM,[7]; batch_name=ASAP-0011176-002,47%
same,remaining activity at 10 µM,[8]; batch_name=ASAP-0011176-002,108%
same,remaining activity at 10 µM,[9]; batch_name=ASAP-0011176-002,89%
same,remaining activity at 10 µM,[10]; batch_name=ASAP-0011176-002,92%
same,remaining activity at 10 µM,[11]; batch_name=ASAP-0011176-002,97%
same,remaining activity at 10 µM,[12]; batch_name=ASAP-0011176-002,105%
